Measurements from ChEMBL document CHEMBL1201862, “PubChem BioAssay data set” (2004).
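The compound was tested at five concentrations on cells cultured in 96-well plates, with a 48-hour exposure period. Here, GI50 denotes the concentration required for 50% inhibition of growth.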 Calls of active or inactive are those of the source. Rule as the data show it: active = GI50 up to about 1.1 µM and inactive = higher.

Legend:
Experiment in all cases: DTP human tumour cell line panel, 48 h
786-0 = tested on: 786-0
A498 = tested on: A498
A549 = tested on: A549
ACHN = tested on: ACHN
BT-549 = tested on: BT-549
CAKI-1 = tested on: CAKI-1
COLO 205 = tested on: COLO 205
DU-145 = tested on: DU-145
EKVX = tested on: EKVX
HCC 2998 = tested on: HCC 2998
HCT-116 = tested on: HCT-116
HCT-15 = tested on: HCT-15
HL-60 = tested on: HL-60
HOP-62 = tested on: HOP-62
HOP-92 = tested on: HOP-92
HT-29 = tested on: HT-29
Hs-578T = tested on: Hs-578T
IGROV-1 = tested on: IGROV-1
K562 = tested on: K562
KM12 = tested on: KM12
LOX IMVI = tested on: LOX IMVI
M14 = tested on: M14
MCF7 = tested on: MCF7
MDA-MB-231 = tested on: MDA-MB-231
MDA-MB-435 = tested on: MDA-MB-435
MDA-N = tested on: MDA-N
MOLT-4 = tested on: MOLT-4
Malme-3M = tested on: Malme-3M
NCI-H226 = tested on: NCI-H226
NCI-H23 = tested on: NCI-H23
NCI-H460 = tested on: NCI-H460
NCI-H522 = tested on: NCI-H522
NCI/ADR-RES = tested on: NCI/ADR-RES
OVCAR-3 = tested on: OVCAR-3
OVCAR-4 = tested on: OVCAR-4
OVCAR-5 = tested on: OVCAR-5
OVCAR-8 = tested on: OVCAR-8
PC-3 = tested on: PC-3
RPMI-8226 = tested on: RPMI-8226
RXF 393 = tested on: RXF 393
SF-268 = tested on: SF-268
SF-295 = tested on: SF-295
SF-539 = tested on: SF-539
SK-MEL-28 = tested on: SK-MEL-28
SK-MEL-2 = tested on: SK-MEL-2
SK-MEL-5 = tested on: SK-MEL-5
SK-OV-3 = tested on: SK-OV-3
SN12C = tested on: SN12C
SNB-19 = tested on: SNB-19
SNB-75 = tested on: SNB-75
SW-620 = tested on: SW-620
T47D = tested on: T47D
TK-10 = tested on: TK-10
U-251 = tested on: U-251
UACC-257 = tested on: UACC-257
UACC-62 = tested on: UACC-62
UO-31 = tested on: UO-31
CCRF-CEM = tested on: CCRF-CEM

For O=C1c2ccccc2C(=O)N1c1ccc(Cc2ccc(N3C(=O)c4ccccc4C3=O)cc2)cc1, the GI50 (786-0) was > 100 µM (inactive), the GI50 (A498) was > 100 µM (inactive) and the GI50 (A549) was > 100 µM (inactive). For the same molecule, the GI50 (ACHN) was > 100 µM (inactive), the GI50 (BT-549) was > 100 µM (inactive) and the GI50 (CAKI-1) was > 100 µM (inactive). For the same molecule, the GI50 (COLO 205) was > 100 µM (inactive), the GI50 (DU-145) was > 100 µM (inactive) and the GI50 (EKVX) was > 100 µM (inactive). The GI50 (HCC 2998) was > 100 µM (inactive), the GI50 (HCT-116) was > 100 µM (inactive) and the GI50 (HCT-15) was > 100 µM. For the same molecule, the GI50 (HL-60) was < 0.01 µM (active), the GI50 (HOP-62) was 49.9 µM (inactive) and the GI50 (HOP-92) was > 100 µM (inactive). For the same molecule, the GI50 (HT-29) was > 100 µM (inactive), the GI50 (Hs-578T) was > 100 µM (inactive) and the GI50 (IGROV-1) was > 100 µM (inactive). For the same molecule, the GI50 (K562) was 0.853 µM (active), the GI50 (KM12) was > 100 µM (inactive) and the GI50 (LOX IMVI) was > 100 µM (inactive). The GI50 (M14) was > 100 µM (inactive), the GI50 (MCF7) was > 100 µM (inactive) and the GI50 (MDA-MB-231) was > 100 µM (inactive). The GI50 (MDA-MB-435) was > 100 µM (inactive), the GI50 (MDA-N) was > 100 µM (inactive) and the GI50 (MOLT-4) was 3.02 µM (inactive). For the same molecule, the GI50 (Malme-3M) was > 100 µM (inactive), the GI50 (NCI-H226) was > 100 µM (inactive) and the GI50 (NCI-H23) was > 100 µM (inactive). The GI50 (NCI-H460) was > 100 µM (inactive), the GI50 (NCI-H522) was > 100 µM (inactive) and the GI50 (NCI/ADR-RES) was > 100 µM (inactive). For the same molecule, the GI50 (OVCAR-3) was > 21.9 µM (inactive), the GI50 (OVCAR-4) was > 100 µM (inactive) and the GI50 (OVCAR-5) was > 100 µM (inactive). For the same molecule, the GI50 (OVCAR-8) was > 100 µM (inactive), the GI50 (PC-3) was > 100 µM (inactive) and the GI50 (RPMI-8226) was > 100 µM (inactive). The GI50 (RXF 393) was > 100 µM (inactive), the GI50 (SF-268) was > 100 µM (inactive) and the GI50 (SF-295) was > 50.7 µM (inactive). The GI50 (SF-539) was > 80.9 µM (inactive), the GI50 (SK-MEL-28) was > 100 µM (inactive) and the GI50 (SK-MEL-2) was > 100 µM (inactive). For the same molecule, the GI50 (SK-MEL-5) was > 100 µM (inactive), the GI50 (SK-OV-3) was > 100 µM (inactive) and the GI50 (SN12C) was > 100 µM (inactive). The GI50 (SNB-19) was > 100 µM (inactive), the GI50 (SNB-75) was > 84.5 µM (inactive) and the GI50 (SW-620) was > 100 µM (inactive). The GI50 (T47D) was > 100 µM (inactive), the GI50 (TK-10) was > 100 µM (inactive) and the GI50 (U-251) was > 100 µM (inactive). For the same molecule, the GI50 (UACC-257) was > 100 µM (inactive), the GI50 (UACC-62) was > 100 µM (inactive) and the GI50 (UO-31) was > 100 µM (inactive).

CC1(C)CC2=C(Sc3ccccc3N2)C(=O)C1C(=O)C(=O)Nc1cccc([N+](=O)[O-])c1 (centres undefined) was tested, and the GI50 (786-0) was > 100 µM (inactive), the GI50 (A498) was > 100 µM (inactive) and the GI50 (A549) was > 100 µM (inactive). For the same molecule, the GI50 (ACHN) was > 100 µM (inactive), the GI50 (BT-549) was > 100 µM (inactive) and the GI50 (CAKI-1) was > 100 µM (inactive). The GI50 (CCRF-CEM) was 0.0738 µM (active), the GI50 (COLO 205) was > 100 µM (inactive) and the GI50 (DU-145) was > 100 µM (inactive). The GI50 (EKVX) was > 100 µM (inactive), the GI50 (HCC 2998) was > 100 µM (inactive) and the GI50 (HCT-116) was > 100 µM (inactive). For the same molecule, the GI50 (HCT-15) was > 100 µM, the GI50 (HL-60) was > 100 µM (inactive) and the GI50 (HOP-92) was > 100 µM (inactive). For the same molecule, the GI50 (HT-29) was > 100 µM (inactive), the GI50 (Hs-578T) was > 100 µM (inactive) and the GI50 (IGROV-1) was > 100 µM (inactive). For the same molecule, the GI50 (K562) was 66.8 µM (inactive), the GI50 (KM12) was 44 µM (inactive) and the GI50 (LOX IMVI) was > 100 µM (inactive). For the same molecule, the GI50 (M14) was > 100 µM (inactive), the GI50 (MCF7) was > 100 µM (inactive) and the GI50 (MDA-MB-231) was 99.3 µM (inactive). The GI50 (MDA-MB-435) was > 100 µM (inactive), the GI50 (MDA-N) was > 100 µM (inactive) and the GI50 (MOLT-4) was 33 µM (inactive). For the same molecule, the GI50 (Malme-3M) was > 100 µM (inactive), the GI50 (NCI-H226) was > 100 µM (inactive) and the GI50 (NCI-H23) was > 100 µM (inactive). For the same molecule, the GI50 (NCI-H460) was > 100 µM (inactive), the GI50 (NCI-H522) was > 100 µM (inactive) and the GI50 (NCI/ADR-RES) was > 100 µM (inactive). The GI50 (OVCAR-3) was 85.5 µM (inactive), the GI50 (OVCAR-4) was 82.4 µM (inactive) and the GI50 (OVCAR-5) was > 100 µM (inactive). For the same molecule, the GI50 (OVCAR-8) was > 100 µM (inactive), the GI50 (PC-3) was 75.9 µM (inactive) and the GI50 (RPMI-8226) was 64.6 µM (inactive). For the same molecule, the GI50 (SF-268) was > 100 µM (inactive), the GI50 (SF-295) was > 100 µM (inactive) and the GI50 (SF-539) was > 100 µM (inactive). For the same molecule, the GI50 (SK-MEL-28) was > 100 µM (inactive), the GI50 (SK-MEL-2) was > 100 µM (inactive) and the GI50 (SK-MEL-5) was > 100 µM (inactive). The GI50 (SK-OV-3) was > 100 µM (inactive), the GI50 (SN12C) was > 100 µM (inactive) and the GI50 (SNB-19) was > 100 µM (inactive). For the same molecule, the GI50 (SNB-75) was > 100 µM (inactive), the GI50 (SW-620) was > 100 µM (inactive) and the GI50 (T47D) was > 100 µM (inactive). For the same molecule, the GI50 (TK-10) was > 100 µM (inactive), the GI50 (U-251) was > 100 µM (inactive) and the GI50 (UACC-257) was > 100 µM (inactive). For the same molecule, the GI50 (UACC-62) was 98.2 µM (inactive) and the GI50 (UO-31) was > 100 µM (inactive).

CC1=C[C@@H]2Cc3nc4cc(Cl)ccc4c(N)c3[C@H](C1)C2 was tested, and the GI50 (786-0) was 6.03 µM (inactive), the GI50 (A498) was 11.2 µM (inactive) and the GI50 (A549) was 12.6 µM (inactive). The GI50 (ACHN) was 10.6 µM (inactive), the GI50 (BT-549) was 16.2 µM (inactive) and the GI50 (CAKI-1) was 3.89 µM (inactive). The GI50 (CCRF-CEM) was 12.2 µM (inactive), the GI50 (COLO 205) was 1.48 µM (inactive) and the GI50 (DU-145) was 12.9 µM (inactive). The GI50 (EKVX) was 3.32 µM (inactive), the GI50 (HCT-116) was 2.96 µM (inactive) and the GI50 (HCT-15) was 7 µM. The GI50 (HL-60) was 15.3 µM (inactive), the GI50 (HOP-62) was 11.2 µM (inactive) and the GI50 (HOP-92) was 0.685 µM (active). The GI50 (HT-29) was 2.68 µM (inactive), the GI50 (Hs-578T) was 2.42 µM (inactive) and the GI50 (IGROV-1) was 1.76 µM (inactive). The GI50 (K562) was 2.71 µM (inactive), the GI50 (KM12) was 7.6 µM (inactive) and the GI50 (LOX IMVI) was 5.38 µM (inactive). The GI50 (M14) was 4.57 µM (inactive), the GI50 (MCF7) was 10 µM (inactive) and the GI50 (MDA-MB-231) was 11.6 µM (inactive). The GI50 (MDA-MB-435) was 10.9 µM (inactive), the GI50 (MDA-N) was 15.5 µM (inactive) and the GI50 (MOLT-4) was 2.07 µM (inactive). The GI50 (Malme-3M) was 12 µM (inactive), the GI50 (NCI-H226) was 8.38 µM (inactive) and the GI50 (NCI-H23) was 8.22 µM (inactive). The GI50 (NCI-H460) was 9.02 µM (inactive), the GI50 (NCI/ADR-RES) was 11.7 µM (inactive) and the GI50 (OVCAR-3) was 10.4 µM (inactive). For the same molecule, the GI50 (OVCAR-4) was 3.99 µM (inactive), the GI50 (OVCAR-5) was 4.28 µM (inactive) and the GI50 (OVCAR-8) was 15.3 µM (inactive). The GI50 (PC-3) was 12.5 µM (inactive), the GI50 (RPMI-8226) was 3.66 µM (inactive) and the GI50 (RXF 393) was 5.42 µM (inactive). For the same molecule, the GI50 (SF-268) was 12.5 µM (inactive), the GI50 (SF-295) was 6.17 µM (inactive) and the GI50 (SF-539) was 12.4 µM (inactive). For the same molecule, the GI50 (SK-MEL-28) was 12.3 µM (inactive), the GI50 (SK-MEL-2) was 14.7 µM (inactive) and the GI50 (SK-MEL-5) was 2.84 µM (inactive). For the same molecule, the GI50 (SK-OV-3) was 12 µM (inactive), the GI50 (SN12C) was 12.4 µM (inactive) and the GI50 (SNB-19) was 11.8 µM (inactive). For the same molecule, the GI50 (SNB-75) was 4.97 µM (inactive), the GI50 (SW-620) was 11 µM (inactive) and the GI50 (T47D) was 12.3 µM (inactive). The GI50 (TK-10) was 5.78 µM (inactive), the GI50 (U-251) was 13.4 µM (inactive) and the GI50 (UACC-257) was 2.02 µM (inactive). The GI50 (UACC-62) was 14.6 µM (inactive) and the GI50 (UO-31) was 5.06 µM (inactive).
